Results published in article PMC4206749 (Toxicological Research, 2014).

Tested on: CHL cells (Chinese hamster lung fibroblast cell line)
Assay: In vitro chromosomal aberration assay
Assay type: cell-based
Settings: for Structural aberrations, Others / Gap / Numerical aberrations, PP + ER / Structural aberrations, Chromatid type, ctb / Structural aberrations, Chromatid type, cte / Structural aberrations, Chromosome type, csb / Structural aberrations, Chromosome type, cse: 200 cells
[1] = S9 (−), 24~0 hr continuous, 25 μg/ml
[2] = S9 (−), 24~0 hr continuous, 50 μg/ml

Oc1ccc(-c2ccc3cc(O)ccc3c2)c(O)c1 [HS-1793, 4-(6-hydroxy-2-naphthyl)-1,3-benzenediol]
72%: Growth index (S9 (−), 6~18 hr, 50 μg/ml) | Growth index [2]
0: Structural aberrations, Others (S9 (+), 6~18 hr, 50 μg/ml) | Numerical aberrations, PP + ER (S9 (+), 6~18 hr, 100 μg/ml) | Structural aberrations, Chromatid type, ctb (S9 (+), 6~18 hr, 100 μg/ml) | Structural aberrations, Chromosome type, csb (S9 (+), 6~18 hr, 100 μg/ml) | Structural aberrations, Chromosome type, cse (S9 (+), 6~18 hr, 100 μg/ml) | Structural aberrations, Others (S9 (+), 6~18 hr, 100 μg/ml) | Numerical aberrations, PP + ER (S9 (−), 6~18 hr, 6.25 μg/ml) | Structural aberrations, Chromatid type, ctb (S9 (−), 6~18 hr, 6.25 μg/ml) | Structural aberrations, Chromosome type, csb (S9 (−), 6~18 hr, 6.25 μg/ml) | Structural aberrations, Chromosome type, cse (S9 (−), 6~18 hr, 6.25 μg/ml) | Structural aberrations, Others (S9 (−), 6~18 hr, 6.25 μg/ml) | Numerical aberrations, PP + ER (S9 (−), 6~18 hr, 12.5 μg/ml) | Structural aberrations, Chromosome type, csb (S9 (−), 6~18 hr, 12.5 μg/ml) | Structural aberrations, Chromosome type, cse (S9 (−), 6~18 hr, 12.5 μg/ml) | Structural aberrations, Others (S9 (−), 6~18 hr, 12.5 μg/ml) | Numerical aberrations, PP + ER (S9 (−), 6~18 hr, 25 μg/ml) | Structural aberrations, Chromatid type, ctb (S9 (−), 6~18 hr, 25 μg/ml) | Structural aberrations, Chromosome type, cse (S9 (−), 6~18 hr, 25 μg/ml) | Structural aberrations, Others (S9 (−), 6~18 hr, 25 μg/ml) | Numerical aberrations, PP + ER (S9 (−), 6~18 hr, 50 μg/ml) | Structural aberrations, Chromosome type, csb (S9 (−), 6~18 hr, 50 μg/ml) | Structural aberrations, Chromosome type, cse (S9 (−), 6~18 hr, 50 μg/ml) | Structural aberrations, Others (S9 (−), 6~18 hr, 50 μg/ml) | Structural aberrations, Chromatid type, ctb (S9 (−), 6~18 hr, 100 μg/ml) | Structural aberrations, Chromosome type, csb (S9 (−), 6~18 hr, 100 μg/ml) | Structural aberrations, Chromosome type, cse (S9 (−), 6~18 hr, 100 μg/ml) | Structural aberrations, Others (S9 (−), 6~18 hr, 100 μg/ml) | Structural aberrations, Chromatid type, ctb [1] | Structural aberrations, Chromosome type, csb [1] | Structural aberrations, Chromosome type, cse [1] | Structural aberrations, Others [1] | Structural aberrations, Chromosome type, csb [2] | Structural aberrations, Chromosome type, cse [2] | Structural aberrations, Others [2]
93%: Growth index (S9 (−), 24~0 hr continuous, 6.25 μg/ml)
2: Gap (S9 (+), 6~18 hr, 100 μg/ml) | Structural aberrations, Chromatid type, cte (S9 (−), 6~18 hr, 6.25 μg/ml) | Gap (S9 (−), 6~18 hr, 12.5 μg/ml) | Gap (S9 (−), 6~18 hr, 25 μg/ml) | Gap (S9 (−), 6~18 hr, 100 μg/ml) | Structural aberrations, Chromatid type, ctb [2]
2%: Total frequency (+) Gap (S9 (−), 6~18 hr, 12.5 μg/ml) | Total frequency (+) Gap (S9 (−), 6~18 hr, 25 μg/ml) | Total frequency (+) Gap [2]
0.5%: Total frequency (−) Gap (S9 (+), 6~18 hr, 100 μg/ml) | Total frequency (−) Gap (S9 (−), 6~18 hr, 100 μg/ml)
1%: Total frequency (−) Gap (S9 (−), 6~18 hr, 6.25 μg/ml) | Total frequency (−) Gap (S9 (−), 6~18 hr, 12.5 μg/ml) | Total frequency (−) Gap (S9 (−), 6~18 hr, 25 μg/ml) | Total frequency (−) Gap (S9 (−), 6~18 hr, 50 μg/ml)
did not induce a significant increase: Incidence of structural or numerical chromosomal aberrations (continuous treatment for 24 hr, 6.25, 12.5, 25, 50 and 100 μg/ml, absence of the S9 mix) | Incidence of structural or numerical chromosomal aberrations (short term treatment for 6 hr, 6.25, 12.5, 25, 50 and 100 μg/ml, presence or absence of the S9 mix)
71%: Growth index (S9 (+), 6~18 hr, 100 μg/ml)
85%: Growth index (S9 (−), 24~0 hr continuous, 12.5 μg/ml)
1: Structural aberrations, Chromatid type, cte (S9 (+), 6~18 hr, 100 μg/ml) | Gap (S9 (−), 6~18 hr, 6.25 μg/ml) | Structural aberrations, Chromatid type, ctb (S9 (−), 6~18 hr, 12.5 μg/ml) | Structural aberrations, Chromatid type, cte (S9 (−), 6~18 hr, 12.5 μg/ml) | Structural aberrations, Chromatid type, cte (S9 (−), 6~18 hr, 25 μg/ml) | Structural aberrations, Chromosome type, csb (S9 (−), 6~18 hr, 25 μg/ml) | Gap (S9 (−), 6~18 hr, 50 μg/ml) | Structural aberrations, Chromatid type, ctb (S9 (−), 6~18 hr, 50 μg/ml) | Structural aberrations, Chromatid type, cte (S9 (−), 6~18 hr, 50 μg/ml) | Gap [1] | Numerical aberrations, PP + ER [1] | Structural aberrations, Chromatid type, cte [1] | Structural aberrations, Chromatid type, cte [2]
1.5%: Total frequency (+) Gap (S9 (+), 6~18 hr, 100 μg/ml) | Total frequency (+) Gap (S9 (−), 6~18 hr, 6.25 μg/ml) | Total frequency (+) Gap (S9 (−), 6~18 hr, 50 μg/ml) | Total frequency (−) Gap [2]
98%: Growth index (S9 (−), 6~18 hr, 6.25 μg/ml)
84%: Growth index (S9 (−), 6~18 hr, 25 μg/ml)
79%: Growth index [1]
90%: Growth index (S9 (−), 6~18 hr, 12.5 μg/ml)
58%: Growth index (S9 (−), 24~0 hr continuous, 100 μg/ml)
65%: Growth index (S9 (−), 6~18 hr, 100 μg/ml)
